One series concerns Candida albicans. Briefly: Growth inhibition of Candida albicans JRW#5. The series is classed as functional, organism-based.
A further series has as its system Erythrocyte. In words: Hemolytic activity in human erythrocytes at 1 mM. It counts as functional.
The subject of series [1] is CHO. Briefly: Cytotoxicity against CHO cells at 1.0 mM after 3 days relative to control. It counts as cell-based, Cricetulus griseus. To be noted: chinese hamster, 72 h, 1000 µM.
In series [2] the test system is CHO. In words: Cytotoxicity against CHO cells at 0.1 mM after 3 days relative to control. It counts as cell-based, Cricetulus griseus. The conditions noted are these: chinese hamster, 72 h, 100 µM.

Among the data in ChEMBL document CHEMBL1144542, “Design of endoperoxides with anti-Candida activity” (Bioorg Med Chem, 2007) are IC50 and Activity values, retold here.

SMILES strings stand for the structures. pIC50: −log10 of the molar value. A value given as a limit tells only on which side of the number the result lay.

In the case of `C1C2CC3CC1CC(C[C@H]1OOC[C@H]4O[C@@H]14)(C2)C3`, in the series on Candida albicans, the pIC50 (in general, −log10 of the IC50, conventionally taken in molar units) is 3.90.
Turning to `C1CCC([C@@]23COOC[C@@H]2O3)CC1`, in the series with Candida albicans, the negative-log IC50 (pIC50) was 3.30.
The molecule `C[C@H]1OO[C@@H](COCc2ccccc2)[C@H]2O[C@H]21` had a negative logarithm of the IC50 (pIC50) in the series with Candida albicans of 4.20.
In the series with Candida albicans, `C1=C[C@@H](C23CC4CC(CC(C4)C2)C3)OOC1` had a pIC50 of 4.51. The same molecule showed an Activity in the series with Erythrocyte of 100%.
Consider `C1C2CC3CC1CC(C[C@H]1OOC[C@@H]4O[C@@H]41)(C2)C3`, for which, in the series on Candida albicans, the negative logarithm of the IC50 (pIC50) was 3.90.
With `C1=C[C@@H](COCc2ccccc2)OO[C@H]1COCc1ccccc1`, the Activity entry with CHO [1] is given as “Active”; in the series on Erythrocyte, 2%. In the series on Candida albicans, this molecule gave a pIC50 of 4.80.
On to `C1C2CC3CC1CC([C@@H]1OO[C@H](C45CC6CC(CC(C6)C4)C5)[C@H]4O[C@H]41)(C2)C3`, for which the pIC50 with Candida albicans was less than 3.00.
Still for that read-out and setting: the result for `C1=C(C2CCCCC2)COOC1` reads 4.20.
`C1CC2OOC1C1OC21` (stereo not drawn): the Activity result was “Active” in the series on CHO [1], 0% in the series on Erythrocyte and “Active” in the series with CHO [2]. In the series with Candida albicans, this molecule had a pIC50 of 4.80.
`CCCCCCC1=CCOOC1` showed a pIC50 with Candida albicans of 3.60. The Activity in the series with Erythrocyte worked out at 61%.
As for `CCCCCC[C@@]12COOC[C@@H]1O2`, in the series with Candida albicans, the pIC50 was 3.30. In addition, the Activity with Erythrocyte is 31%.
In turn, `CCCCCCC[C@H]1OOC[C@@H]2O[C@@]21CCCCCC` showed a pIC50 in the series with Candida albicans of less than 3.00.
In turn, `C[C@@H]1C=C[C@H](CO)OO1` showed a pIC50 with Candida albicans of 4.80. Also, the values for the Activity with Erythrocyte and in the series on CHO [2] were 0% and “Active”, respectively.
In the series with Candida albicans, `CCCCCCC[C@@H]1C=CCOO1` gave a pIC50 of 4.20. Further, in the series with Erythrocyte, the Activity was determined as 60%.
In the case of `CCCCCCC[C@H]1OOC[C@H]2O[C@@]12CCCCCC`, the pIC50 with Candida albicans was less than 3.00.
With `C[C@@H]1C=C[C@H](COCc2ccccc2)OO1`, in the series on Candida albicans, the pIC50 is 3.60.
On the same count and under the same terms, the result for `CCCCCCC[C@H]1OOCC=C1CCCCCC` reads 3.60; that for `C[C@H]1OO[C@@H](COC(=O)C23CC4CC(CC(C4)C2)C3)[C@H]2O[C@H]21`, 3.90.
On to `CCCCCCC[C@H]1OOC[C@H]2O[C@@H]12`, for which the pIC50 with Candida albicans was 4.20.
On the same count and under the same terms, as for `C[C@@H]1C=C[C@H](COC(=O)C23CC4CC(CC(C4)C2)C3)OO1`, the figure is 3.90.
For `C[C@H]1OO[C@@H](COC(=O)C23CC4CC(CC(C4)C2)C3)[C@@H]2O[C@@H]21`, the negative logarithm of the IC50 (pIC50) in the series on Candida albicans was 3.60.
In the series on Candida albicans, `C[C@@H]1C=C[C@H](CCCO)OO1` gave a pIC50 of 3.60.
The same measure, in the same setting: the result for `C[C@@H]1C=C[C@H](COC(=O)CC23CC4CC(CC(C4)C2)C3)OO1` reads 3.90; that for `C[C@H]1OO[C@@H](COC(=O)CC23CC4CC(CC(C4)C2)C3)[C@@H]2O[C@@H]21`, less than 3.00; that for `c1ccc(COC[C@@H]2OO[C@H](COCc3ccccc3)[C@H]3O[C@H]32)cc1`, 3.60.
`c1ccc(COC[C@@H]2OO[C@H](COCc3ccccc3)[C@@H]3O[C@@H]32)cc1` had a pIC50 in the series on Candida albicans of 4.20. The Activity with Erythrocyte was 1%; with CHO [2], “Active”.
`CCCCCCC[C@H]1OO[C@@H](CCC)[C@H]2O[C@H]21` had a negative logarithm of the IC50 (pIC50) in the series with Candida albicans of 3.30. Besides, the Activity with Erythrocyte was 25%.
The matching figures for `CCCCCCC[C@@H]1C=C[C@H](CCC)OO1`: 3.60 and 86%.
Molecule `C1=C(C23CC4CC(CC(C4)C2)C3)COOC1` gave a negative-log IC50 (pIC50) with Candida albicans of 4.20.
Take `C[C@H]1OO[C@@H](CCCO)[C@@H]2O[C@@H]21`: the negative logarithm of the IC50 (pIC50) in the series with Candida albicans is less than 3.00.
The molecule `C[C@H]1OO[C@@H](CO)[C@@H]2O[C@@H]21` showed a pIC50 with Candida albicans of less than 3.00.
As for `C1=C[C@@H](CC23CC4CC(CC(C4)C2)C3)OOC1`, the negative logarithm of the IC50 (pIC50) with Candida albicans was 3.90.
In the series on Candida albicans, `C1=C[C@H](C23CC4CC(CC(C4)C2)C3)OO[C@@H]1C12CC3CC(CC(C3)C1)C2` gave a pIC50 of less than 3.00.
In the series on Candida albicans, `CCCCCCC[C@H]1OOC[C@@H]2O[C@@H]21` gave a pIC50 of 4.20. The Activity in the series on Erythrocyte is reported as 33%.
In the case of `C1C2CC3CC1CC([C@@]14COOC[C@@H]1O4)(C2)C3`, the pIC50 in the series on Candida albicans was 3.90.
As to `C[C@H]1OO[C@@H](COC(=O)CC23CC4CC(CC(Br)(C4)C2)C3)[C@H]2O[C@H]21`, the pIC50 in the series on Candida albicans is less than 3.00.
Regarding `C[C@@H]1C=C[C@H](COC(=O)CC23CC4CC(CC(Br)(C4)C2)C3)OO1`, the pIC50 in the series on Candida albicans is 3.60.
The molecule `C[C@H]1OO[C@@H](COC(=O)CC23CC4CC(CC(Br)(C4)C2)C3)[C@@H]2O[C@@H]21` had a negative logarithm of the IC50 (pIC50) in the series with Candida albicans of less than 3.00.
Consider `C1C2CC3CC1CC([C@H]1OOC[C@@H]4O[C@@H]41)(C2)C3`, for which the negative logarithm of the IC50 (pIC50) with Candida albicans was 4.51. For the same molecule, in the series with Erythrocyte, the Activity is on record as 41%.
Take `C[C@H]1OO[C@@H](COC(=O)CC23CC4CC(CC(C4)C2)C3)[C@H]2O[C@H]21`: the negative-log IC50 (pIC50) in the series with Candida albicans is 3.60.
In the series on Candida albicans, `c1ccc([C@H]2OO[C@@H](c3ccccc3)[C@@H]3O[C@@H]32)cc1` gave a negative-log IC50 (pIC50) of 3.30.
In the series on Candida albicans, `C1CCC(C[C@H]2OOC[C@@H]3O[C@@H]32)CC1` showed a pIC50 of 3.90.
The molecule `CCCCCCC[C@H]1OO[C@@H](CCC)[C@@H]2O[C@@H]21` showed a negative-log IC50 (pIC50) in the series on Candida albicans of 3.30. This molecule also came in with an Activity in the series with Erythrocyte of 45%.
Turning to `C1=C[C@@H](CC2CCCCC2)OOC1`, the pIC50 in the series on Candida albicans was 3.90.
Molecule `C1CCC(C[C@H]2OOC[C@H]3O[C@@H]23)CC1` showed a pIC50 in the series with Candida albicans of 3.90.
On to `C1=C[C@H](c2ccccc2)OO[C@@H]1c1ccccc1`, for which the result with CHO [1] and in the series with CHO [2] was Active. The molecule further showed a negative-log IC50 (pIC50) in the series on Candida albicans of 4.51.
In the series on Candida albicans, `C[C@H]1OO[C@@H](COCc2ccccc2)[C@@H]2O[C@@H]21` (single isomer, unassigned) showed a negative logarithm of the IC50 (pIC50) of 3.90.
In the case of `C[C@@H]1[C@H](O)[C@@H](C)/C=C/C=C/C=C/C=C/C=C/C=C/C=C/[C@H](O[C@@H]2O[C@H](C)[C@@H](O)[C@H](N)[C@@H]2O)C[C@@H]2O[C@](O)(C[C@@H](O)C[C@@H](O)[C@H](O)CC[C@@H](O)C[C@@H](O)CC(=O)O[C@H]1C)C[C@H](O)[C@H]2C(=O)O` [AMPHOTERICIN B], the negative logarithm of the IC50 (pIC50) in the series with Candida albicans is more than 6.30.
